Literature values as cited in patent US8039631B2, “Process for preparing crystalline form A of Lansoprazole” (Daewoong Pharmaceutical Co., Ltd., priority 2006, dated 2011).
Where two headings read alike, the source gives them in different places.

Legend:
[1] = not given; remark: listed apart in the source

change in the crystalline form on storage (at elevated temperature)	stability when stored (stored for one year at a low temperature (0° C. or lower))	conversion of Form B to Form A ([1]; at 40° C.)	conversion of Form B to Form A ([1]; at a temperature of 10° C. or lower)	stability (change) when stored (stored for one year at room temperature or elevated temperature)	Structure (SMILES)
some change in the crystalline form	high stability	rapidly	slowly converted to Form A	–	Cc1c(OCC(F)(F)F)ccnc1C[S+]([O-])c1nc2ccccc2[nH]1 (centres unmarked) [Form B, Lansoprazole]
–	–	–	–	does not change	Cc1c(OCC(F)(F)F)ccnc1C[S+]([O-])c1nc2ccccc2[nH]1 (centres unmarked) [Form A, Lansoprazole]
